In assay [1] the test system is human striated muscle cells innervated with explants of spinal cord and of spinal ganglia from rat embryos. It counts as cell-based.
The next assay has as its system wrinkles. To be noted: in vivo; cited from earlier work.

Entries after “also recorded” stand apart in the source; their conditions may differ.

Consider `CN1C(=O)CN=C(c2ccccc2)c2cc(Cl)ccc21` [diazepam, reference compound], for which, in assay [1], the muscle fibre contractions result is on record as “inhibited muscle fibre contractions”. Further, the anti-wrinkle activity entry in the assay on wrinkles is recorded as “demonstrated in vivo”.

Take `CCCCCC(=O)CCN(CC)CCCc1ccccc1` [Compound (4)]: in assay [1] (100 μM, incubated for 60 seconds, contractions counted over 30 seconds), the “contractions of three muscle fibres” value was “blocks the contractions”.

As for botulinum toxin, in assay [1], the “blocking effect on contractions” value was “blocking effect which is much weaker; also recorded: complete”, the “blocking of the contractions” value is reported as “completely blocks the contractions” and the “frequency of the contractions” value is listed as “greatly decreases the frequency of the contractions”.

The record behind these values is US20050008607A1, “Composition containing a carbonyl amine” (priority 2003, published 2005).
